Data set [1] concerns Mice.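 Note: mice weighing 18–20 g, both sexes in equal proportion within each group.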
Method: Mice (18-20 g) with equal numbers of male and female are divided into groups (10 mice/group), after normal feeding for 3 days, fasted for 12 hours, and then administered intragastrically with a single dose of 750 mg/kg compound respectively.
Data set [2] has as its system SD rats (type 2 diabetes model). Kind of data set: model for rat urine glucose excretion (glucose-oxidase method). The data set is classed as in vivo. The note with it: for Urine glucose excretion (mg/200 g body weight of the rat): type 2 diabetes model SD rats, 6 mg/kg intragastrically, glucose 2 g/kg at 0.5 h, urine collected 0-12 h. On the procedure: The health SD rats are injected intraperitoneally with multiple low doses of streptozotocin for modeling (type 2 diabetes model) after feeding with high-fat and high-sucrose diet, and the content of blood glucose is measured before and after modeling. After the modeling successful, the rats for modeling are randomly divided (8 rats/group) into one blank group (administering the same volume of 0.5% CMC sodium solution) and several groups for compounds to be tested (6 mg/kg) according to the content of 24-hour urine glucose and the body weight. Rats in each group are fasted for 16 hours before experiment. The experimental rats are administered intragastrically with glucose (2 g/kg) at 0.5 h after intragastrical administration with compounds to be tested. The urine is collected at the time-period of 0-12 h after administration, and the urine glucose values are measured at each time-period by glucose-oxidase method.
The inhibiting activity of the cocrystal of I-D1-6 and L-proline on SGLT2 is measured by the model for rat urine glucose excretion.
The health SD rats are injected intraperitoneally with multiple low doses of streptozotocin for modeling (type 2 diabetes model) after feeding with high-fat and high-sucrose diet for one month, and the content of blood glucose is measured before and after modeling. After the modeling successful, the rats for modeling are randomly divided (8 rats/group) into one blank group (administering the same volume of 0.5% CMC sodium solution) and groups of tested compound (6 mg/kg) according to the content of 24-hour urine glucose and the body weight. Rats in each group are fasted for 16 hours before experiment. The experimental rats are administered intragastrically with the glucose (2 g/kg) at 0.5 h after intragastrical administration with the cocrystal of I-D1-6 and L-proline prepared in Example 138. The urine is collected at the time-period of 0-12 h after administration, and the urine glucose values are measured at each time-period by glucose-oxidase method.

[3] abbreviates: mice, 10 mice/group, single intragastric dose 750 mg/kg, within one week.
Where [4] appears, read: both, mouse, in vivo, 750 mg/kg, 1 week.

Here are results for 53 compounds from patent US9505734B2, “Phenyl C-glucoside derivative containing deoxyglucose structure, preparation method and use thereof” (Tianjin Institute of Pharmaceutical Research, priority 2012, dated 2016).

SMILES strings stand for the structures. Read-outs that look alike come from different tables or passages of the source.

Regarding `OCC1OC(c2ccc(Cl)c(Cc3ccc(O[C@H]4CCOC4)cc3)c2)CC(O)C1O` (some centres unmarked) [drawing 287], in data set [1] (setting [3]), the “Behaviors after administration with the compound to be tested (deaths)” value (shortened to “Behaviors after administration”) is 2 dead.

As to `CCc1ccc(Cc2c(Cl)ccc3c2COC32OC(C)C(O)C(O)C2O)cc1` (centres unmarked) [drawing 299], the “Behaviors after administration” value in data set [1] (setting [3]) was 3 dead.

As for `Cc1ccc(C2OC(CO)CC(O)C2O)cc1Cc1ccc(-c2ccc(F)cc2)s1` (centres unmarked) [drawing 271], the “Behaviors after administration” value in data set [1] (setting [3]) turned out to be 3 dead.

For the compound `CCOc1ccc(Cc2cc(C3OC(CO)C(O)CC3O)ccc2Cl)cc1` (centres unmarked) [drawing 280], in data set [1] (setting [3]), the “Behaviors after administration” value amounted to 3 dead.

On to `OCC1CC(O)C(O)C(c2ccc(F)c(Cc3cc4ccccc4s3)c2)O1` (centres unmarked) [drawing 284], for which the “Behaviors after administration” value in data set [1] (setting [3]) came out at 1 dead.

`CCOc1ccc(Cc2cc([C@]34OC[C@](C)(O3)[C@@H](O)[C@H](O)[C@H]4O)ccc2Cl)cc1` [drawing 292]: the “Behaviors after administration” value in data set [1] (setting [3]) is given as 3 dead.

With `CCOc1ccc(Cc2cc(C3OC(C)CC(O)C3O)ccc2Cl)cc1` (centres unmarked) [drawing 294], in data set [1] (setting [3]), the “Behaviors after administration” value is 1 dead.

Take `CCOc1ccc(Cc2cc(C3OC(C)C(O)C(O)C3O)ccc2Cl)cc1` (centres unmarked) [drawing 279]: in data set [1] (setting [3]), the “Behaviors after administration” value is 1 dead.

As for `CC1OC(c2ccc(F)c(Cc3cc4ccccc4s3)c2)CC(O)C1O` (centres unmarked) [drawing 295], the “Behaviors after administration” value in data set [1] (setting [3]) came to 1 dead.

Consider `CCc1ccc(Cc2c(Cl)ccc3c2COC32OC(CO)C(O)C(O)C2O)cc1` (centres unmarked) [drawing 266], for which, in data set [1] (setting [3]), the “Behaviors after administration” value stood at 7 dead.

Turning to `Cc1ccc(C2OC(CO)C(O)C(O)C2O)cc1Cc1ccc(-c2ccc(F)cc2)s1` (centres unmarked) [drawing 275], the “Behaviors after administration” value in data set [1] (setting [3]) was 9 dead.

As to `CC1OC(c2ccc(F)c(Cc3cc4ccccc4s3)c2)C(O)C(O)C1O` (centres unmarked) [drawing 273], the “Behaviors after administration” value in data set [1] (setting [3]) stood at 2 dead.

Regarding `OCC1OC(c2ccc(F)c(Cc3cc4ccccc4s3)c2)C(O)C(O)C1O` (centres unmarked) [drawing 265], in data set [1] (setting [4]), the “Behaviors after administration” value is listed as 7 dead.

In the case of `CCc1ccc(Cc2c(Cl)ccc3c2COC32OC(CO)C(O)CC2O)cc1` (centres unmarked) [drawing 288], the “Behaviors after administration” value in data set [1] (setting [3]) was 5 dead.

Regarding `CCOc1ccc(Cc2cc([C@]34C[C@@H](O)[C@H](O)[C@](CO)(CO3)O4)ccc2Cl)cc1` [drawing 303], the “Behaviors after administration” value in data set [1] (setting [3]) is on record as 2 dead.

With `OCC1OC(c2ccc(Cl)c(Cc3ccc(O[C@H]4CCOC4)cc3)c2)C(O)CC1O` (some centres unmarked) [drawing 274], the “Behaviors after administration” value in data set [1] (setting [3]) was 0 dead.

Consider `COc1ccc(Cc2cc(C3OC(C)C(O)C(O)C3O)ccc2Cl)cc1` (centres unmarked) [drawing 278], for which the “Behaviors after administration” value in data set [1] (setting [3]) stood at 7 dead.

Turning to `CCOc1ccc(Cc2cc(C3CCC(O)C(CO)S3)c(OC)cc2C)cc1` (centres unmarked) [drawing 307], the “Behaviors after administration” value in data set [1] (setting [3]) came out at 0 dead.

Regarding `CCOc1ccc(Cc2cc(C3CC(O)C(O)C(CO)S3)c(OC)cc2C)cc1` (centres unmarked) [drawing 291], the “Behaviors after administration” value in data set [1] (setting [3]) came to 3 dead.

On to `CC1OC(c2ccc(Cl)c(Cc3ccc(O[C@H]4CCOC4)cc3)c2)C(O)C(O)C1O` (some centres unmarked) [drawing 286], for which the “Behaviors after administration” value in data set [1] (setting [3]) stood at 1 dead.

For `CCOc1ccc(Cc2cc(C3SC(CO)CC(O)C3O)c(OC)cc2C)cc1` (centres unmarked) [drawing 289], the “Behaviors after administration” value in data set [1] (setting [3]) is 1 dead.

With `Cc1ccc(C2CC(O)C(O)C(CO)O2)cc1Cc1ccc(-c2ccc(F)cc2)s1` (centres unmarked) [drawing 272], the “Behaviors after administration” value in data set [1] (setting [3]) is given as 5 dead.

On to `OCC1OC(c2ccc(F)c(Cc3cc4ccccc4s3)c2)C(O)CC1O` (centres unmarked) [drawing 283], for which the “Behaviors after administration” value in data set [1] (setting [3]) is given as 0 dead.

Take `CCc1ccc(Cc2c(Cl)ccc3c2COC32CC(O)C(O)C(CO)O2)cc1` (centres unmarked) [drawing 290]: the “Behaviors after administration” value in data set [1] (setting [3]) stood at 2 dead.

Take `Cc1ccc(C2OC(C)C(O)CC2O)cc1Cc1ccc(-c2ccc(F)cc2)s1` (centres unmarked) [drawing 305]: the “Behaviors after administration” value in data set [1] (setting [3]) is 0 dead.

On to `CCc1ccc(Cc2c(Cl)ccc3c2COC32CC(O)CC(CO)O2)cc1` (centres unmarked) [drawing 296], for which the “Behaviors after administration” value in data set [1] (setting [3]) came to 1 dead.

`CCOc1ccc(Cc2cc(C3SC(C)C(O)C(O)C3O)c(OC)cc2C)cc1` (centres unmarked) [drawing 302]: the “Behaviors after administration” value in data set [1] (setting [3]) worked out at 4 dead.

`CCOc1ccc(Cc2cc(C3OC(CO)C(O)C(O)C3O)ccc2Cl)cc1` (centres unmarked) [drawing 264]: the “Behaviors after administration” value in data set [1] (setting [3]) worked out at 8 dead.

On to `Cc1ccc(C2OC(CO)C(O)CC2O)cc1Cc1ccc(-c2ccc(F)cc2)s1` (centres unmarked) [drawing 282], for which the “Behaviors after administration” value in data set [1] (setting [3]) was 3 dead.

With `CCc1ccc(Cc2c(Cl)ccc3c2COC32OC(CO)CC(O)C2O)cc1` (centres unmarked) [drawing 245], in data set [2], the “Urine glucose excretion (mg/200 g body weight of the rat)” value is 634 mg/200 g body weight of the rat.

Consider `Cc1ccc(C2OC(C)C(O)CC2O)cc1Cc1ccc(-c2ccc(F)cc2)s1` (centres unmarked) [drawing 261], for which the “Urine glucose excretion (mg/200 g body weight of the rat)” value in data set [2] is on record as 701 mg/200 g body weight of the rat.

Turning to `CCOc1ccc(Cc2cc(C3SC(CO)C(O)C(O)C3O)c(OC)cc2C)cc1` (centres unmarked) [drawing 277], the “Behaviors after administration” value in data set [1] (setting [4]) is listed as 10 dead.

Consider `CC1OC(c2ccc(Cl)c(Cc3ccc(O[C@H]4CCOC4)cc3)c2)C(O)C(O)C1O` (some centres unmarked) [drawing 233], for which the “Urine glucose excretion (mg/200 g body weight of the rat)” value in data set [2] was 748 mg/200 g body weight of the rat.

Regarding `CC1OC(c2ccc(F)c(Cc3cc4ccccc4s3)c2)C(O)C(O)C1O` (centres unmarked) [drawing 230], in data set [2], the “Urine glucose excretion (mg/200 g body weight of the rat)” value is 749 mg/200 g body weight of the rat.

Take `Cc1ccc(C2OC(C)C(O)C(O)C2O)cc1Cc1ccc(OC2CCOC2)cc1` (centres unmarked): the “Urine glucose excretion (mg/200 g body weight of the rat)” value in data set [2] is 611 mg/200 g body weight of the rat.

Turning to `C=C1OC(c2ccc(Cl)c(Cc3ccc(OCC)cc3)c2)C(O)C(O)C1O` (centres unmarked), in data set [2], the “Urine glucose excretion (mg/200 g body weight of the rat)” value is 457 mg/200 g body weight of the rat.

With `CCc1ccc(Cc2cc(C3OC4(CC4)C(O)C(O)C3O)ccc2C)cc1` (centres unmarked), the “Urine glucose excretion (mg/200 g body weight of the rat)” value in data set [2] is on record as 609 mg/200 g body weight of the rat.

Regarding `CCOc1ccc(Cc2cc(C3OC(C)C(O)C(O)C3O)ccc2OC)cc1` (centres unmarked), the “Urine glucose excretion (mg/200 g body weight of the rat)” value in data set [2] is 688 mg/200 g body weight of the rat.

Take `OCC1OC(c2ccc(F)c(Cc3cc4ccccc4s3)c2)C(O)C(O)C1O` (centres unmarked) [drawing 195]: the “Urine glucose excretion (mg/200 g body weight of the rat)” value in data set [2] was 621 mg/200 g body weight of the rat.

For the compound `CCOc1ccc(Cc2cc(C3SC(CO)CC(O)C3O)c(OC)cc2C)cc1` (centres unmarked) [drawing 247], in data set [2], the “Urine glucose excretion (mg/200 g body weight of the rat)” value is on record as 677 mg/200 g body weight of the rat.

`COc1ccc(Cc2cc(C3OC(CO)CC(O)C3O)ccc2Cl)c(F)c1` (centres unmarked): the “Urine glucose excretion (mg/200 g body weight of the rat)” value in data set [2] is 288 mg/200 g body weight of the rat.

As for `COc1ccc(Cc2cc(C3OC(CO)C(O)CC3O)ccc2Cl)cc1` (centres unmarked), the “Urine glucose excretion (mg/200 g body weight of the rat)” value in data set [2] is listed as 235 mg/200 g body weight of the rat.

Take `OCC1OC(c2ccc(F)c(Cc3cc4ccccc4s3)c2)CC(O)C1O` (centres unmarked) [drawing 242]: in data set [2], the “Urine glucose excretion (mg/200 g body weight of the rat)” value is reported as 716 mg/200 g body weight of the rat.

Consider `OCC1CCC(O)C(c2ccc(Cl)c(Cc3ccc(O[C@H]4CCOC4)cc3)c2)O1` (some centres unmarked) [drawing 262], for which, in data set [2], the “Urine glucose excretion (mg/200 g body weight of the rat)” value is given as 721 mg/200 g body weight of the rat.

With `CCc1ccc(Cc2cc(C3OC(CO)C(O)CC3O)ccc2C)cc1` (centres unmarked), the “Urine glucose excretion (mg/200 g body weight of the rat)” value in data set [2] is listed as 230 mg/200 g body weight of the rat.

Take `OCC1OC(c2ccc(F)c(Cc3cc4ccccc4s3)c2)C(O)CC1O` (centres unmarked) [drawing 240]: the “Urine glucose excretion (mg/200 g body weight of the rat)” value in data set [2] was 656 mg/200 g body weight of the rat.

With `CCOc1ccc(Cc2cc([C@@H]3O[C@H](CO)[C@@H](O)C[C@H]3O)ccc2Cl)cc1` [I-D1-3, (1S)-1-[4-chloro-3-(4-ethoxybenzyl)phenyl]-1,3-dideoxy-D-glucose], in data set [2] (comparison in words, rat urine glucose excretion model, 6 mg/kg), the “urine glucose excretion effect (in words)” value is on record as “stronger urine glucose excretion effect”.

Turning to `CCOc1ccc(Cc2cc(C3SC(C)C(O)C(O)C3O)c(OC)cc2C)cc1` (centres unmarked) [drawing 258], in data set [2], the “Urine glucose excretion (mg/200 g body weight of the rat)” value is listed as 698 mg/200 g body weight of the rat.

With `CCOc1ccc(Cc2cc(C3OC(CO)C(O)C(O)C3O)ccc2Cl)cc1` (centres unmarked) [drawing 194], the “Urine glucose excretion (mg/200 g body weight of the rat)” value in data set [2] is 743 mg/200 g body weight of the rat.

In the case of `OCC1OC(c2ccc(Cl)c(Cc3ccc(O[C@H]4CCOC4)cc3)c2)C(O)CC1O` (some centres unmarked) [drawing 231], the “Urine glucose excretion (mg/200 g body weight of the rat)” value in data set [2] is recorded as 721 mg/200 g body weight of the rat.

In the case of `CCc1ccc(Cc2cc(C3CC(O)C(O)C(CO)O3)ccc2C)cc1` (centres unmarked), the “Urine glucose excretion (mg/200 g body weight of the rat)” value in data set [2] is recorded as 378 mg/200 g body weight of the rat.

With `OCC1CC(O)C(O)C(c2ccc(F)c(Cc3cc4ccccc4s3)c2)O1` (centres unmarked) [drawing 241], the “Urine glucose excretion (mg/200 g body weight of the rat)” value in data set [2] is on record as 689 mg/200 g body weight of the rat.

In the case of `COc1ccc(Cc2cc(C3OC(CO)CC(O)C3O)ccc2Cl)cc1` (centres unmarked), the “Urine glucose excretion (mg/200 g body weight of the rat)” value in data set [2] is recorded as 310 mg/200 g body weight of the rat.
